Assay results: US9278982B2, “Targeting human thymidylate kinase induces DNA repair toxicity in malignant tumor cells” (NATIONAL YANG-MING UNIVERSITY, priority 2010, dated 2016)

Experiments:
thymidine kinase 1 (TK1) = target: T1, thymidine kinase 1 (TK1) (Homo sapiens, UniProt P04183); assay: Luciferase-coupled TK assay; assay type: biochemical; details: GST-hTK1 protein (5 μg), 10 min preincubation
T1 construct: made in house; host or cells: E. coli JM109 (pGEX-3X-hTK1)
Protocol: FIG. 12. Identification of a novel hTMPK inhibitor. (A) A screen of TMPK inhibitor by luciferase-coupled assay. (B) The chemical structures of YMU1 (compound 21) and related molecules. (C) Effect of YMU1 and derivative compounds on hTMPK inhibition using purified hTMPK protein (0.5 μg) with 10 min preincubation prior to reaction using luciferase-coupled TMPK analysis. (D) Effect of YMU1 on activity of purified TMPK (0.5 μg) and GST-hTK1 protein (5 μg) with 10 min preincubation prior to reaction. Data represent mean±s.d. (n=4) (E) Molecular models of the TMPK-YMU1 complex. Left panel: TMPK/ATP/Mg+2; right panel: TMPK/YMU1. The TMPK is represented in surface electrostatic potential (upper) and structural ribbon (lower). ATP and YMU1 are shown in green and blue stick, respectively, with colored atom (O, red; S, yellow; P, orange). […]
The TK reaction was started by adding purified hTMPK in 50 μl of TK assay buffer (50 mM Tris-HCl, pH 7.5, 1 mM CHAPS, 3 mg/ml BSA, 2.5 mM MgCl2, 50 μM ATP and 100 μM thymidine) in 96 wells plate at 25° C. for 10 min and terminated by adding 200 μl of thymidine (1.25 mM), followed by transferring 10 μl of reaction solution to a white 96-wellplate containing 90 μl of luciferase assay buffer (50 mM Glycine, 0.5 mM EDTA and 5 mM EDTA, pH 7.0, 0.1 μg of luciferase, 50 μM luciferin and 0.1% BSA). The luminescence was measured with a luminescence counter (Packard).

[1] = system: H184B5F5/M10, MCF-10A, MCF-7 and HCT-116 p53−/− cells
Protocol: (B) H184B5F5/M10 cells were seeded onto 100 mm-dish at 5,000 cells/dish. MCF-10A, MCF-7 and HCT-116 p53^−/− cells were seeded onto 6 well plate at 600 cells/well. Following overnight culture, cells were treated with various concentration of YMU1 or FdUrd thrice a week. After 14 days colonies were fixed, stained by crystal violet.
We also compared the effect of YMU1 and FdUrd on cell viability of non-tumorigenic mammary cycling cells, H184B5F5/M10 and MCF-10A and tumor lines, MCF-7 and HCT-116 p53^−/− cells.
After 14 days, colonies were fixed and stained by crystal violet and counted.

TMPK = target: T2, TMPK (Homo sapiens, UniProt P23919); assay: Luciferase-coupled TMPK assay; assay type: biochemical; parameters: GST (N, cleaved yes); made in house; host or cells: E. coli JM109 (pGEX-2T-hTMPK); details: purified hTMPK protein (0.5 μg), 10 min preincubation; read-out: IC50 against hTMPK
T2 sequence (P23919 1-212): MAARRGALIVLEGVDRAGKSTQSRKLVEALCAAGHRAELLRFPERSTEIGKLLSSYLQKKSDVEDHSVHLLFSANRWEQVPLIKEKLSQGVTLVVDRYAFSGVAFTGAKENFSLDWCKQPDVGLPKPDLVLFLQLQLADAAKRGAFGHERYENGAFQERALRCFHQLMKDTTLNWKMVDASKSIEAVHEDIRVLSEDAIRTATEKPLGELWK
Protocol: FIG. 12. Identification of a novel hTMPK inhibitor. (A) A screen of TMPK inhibitor by luciferase-coupled assay. (B) The chemical structures of YMU1 (compound 21) and related molecules. (C) Effect of YMU1 and derivative compounds on hTMPK inhibition using purified hTMPK protein (0.5 μg) with 10 min preincubation prior to reaction using luciferase-coupled TMPK analysis. (D) Effect of YMU1 on activity of purified TMPK (0.5 μg) and GST-hTK1 protein (5 μg) with 10 min preincubation prior to reaction. Data represent mean±s.d. (n=4) (E) Molecular models of the TMPK-YMU1 complex. Left panel: TMPK/ATP/Mg+2; right panel: TMPK/YMU1. The TMPK is represented in surface electrostatic potential (upper) and structural ribbon (lower). ATP and YMU1 are shown in green and blue stick, respectively, with colored atom (O, red; S, yellow; P, orange). TMP is shown in white backbone and Mg+2 in purple. Arrow indicates the position of Asp15.
Based on the functional requirement of TMPK in DNA repair specifically in tumor cells with elevated level of R2 expression, we searched for inhibitors of hTMPK that might be useful in selectively sensitizing tumor cells to doxorubicin. […] The synthetic procedure and structural elucidation of YMU1 (compound 21) are described in the Methods of the Invention section of the application.
The TMPK reaction was started by adding purified hTMPK in 50 μl of TMPK assay buffer (100 mM Tris-HCl, pH 7.5, 100 mM KCl, 10 mM MgCl2, 50 μM ATP and 100 μM dTMP) in 96 wells plate at 25° C. for 10 min and terminated by adding 200 μl of DTNB (100 μM), followed by transferring 10 μl of reaction solution to a white 96-wellplate containing 90 μl of luciferase assay buffer (50 mM Glycine, 0.5 mM EDTA and 5 mM EDTA, pH 7.0, 0.1 μg of luciferase, 50 μM luciferin and 0.1% BSA). The luminescence was measured with a luminescence counter (Packard).

T1 sequence (P04183 whole entry): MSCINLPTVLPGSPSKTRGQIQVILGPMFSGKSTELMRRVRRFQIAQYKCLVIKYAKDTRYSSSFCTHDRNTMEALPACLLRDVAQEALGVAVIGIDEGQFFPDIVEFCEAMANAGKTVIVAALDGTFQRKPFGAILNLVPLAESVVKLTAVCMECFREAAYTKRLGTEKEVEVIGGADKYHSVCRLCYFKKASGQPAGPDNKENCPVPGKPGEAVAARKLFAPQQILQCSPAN

Compound: CCOC(=O)N1CCN(C(=O)Cn2sc3nc(C)cc(C)c3c2=O)CC1 [compound 21, Ethyl 4-(2-(4,6-dimethyl-3-oxoisothiazolo[5,4-b]pyridin-2(3H)-yl)acetyl) piperazine-1-carboxylate]
- inhibitory effect on activity of purified thymidine kinase 1 (TK1) (thymidine kinase 1 (TK1)): without inhibitory effect
- death of cells in colony assay [1]: did not
- IC50 (TMPK): 610 ± 20 nM
